Measurements taken from patent publication US20120244122A1, “Peptides for the Treatment of HCV Infections” (priority 2009, published 2012).
Where two headings read alike, the source gives them in different places.

What was measured:
[1] = Metabolic stability in human liver microsomes; type: in vitro ADME; details: for % Difference: [(deuterated species) − (nondeuterated species)](100)/(nondeuterated species), t1/2 in HLM vs boceprevir; for half-life at 0.25 μM: human, in vitro half-life, 0.5 mg/mL HLM, 0.25 μM test compound, 2 mM NADPH, pH 7.4, 37° C., 0-30 minutes
Experimental: Human liver microsomes (20 mg/mL) were obtained from Xenotech, LLC (Lenexa, Kans.). β-Nicotinamide adenine dinucleotide phosphate, reduced form (NADPH), magnesium chloride (MgCl2), and dimethyl sulfoxide (DMSO) were purchased from Sigma-Aldrich.
7.5 mM stock solutions of Compounds 103, 109, 130, 134, 154, 157 and 158, as well as boceprevir, were prepared in DMSO. The 7.5 mM stock solutions were diluted to 12.5 μM in acetonitrile (ACN). The 20 mg/mL human liver microsomes were diluted to 0.625 mg/mL in 0.1 M potassium phosphate buffer, pH 7.4, containing 3 mM MgCl2. The diluted microsomes (375 μL) were added to wells of a 96-well deep-well polypropylene plate in triplicate. 10 μL of the 12.5 μM test compound was added to the microsomes and the mixture was pre-warmed for 10 minutes. Reactions were initiated by addition of 125 μL of pre-warmed NADPH solution. The final reaction volume was 0.5 mL and contained 0.5 mg/mL human liver microsomes, 0.25 μM test compound, and 2 mM NADPH in 0.1 M potassium phosphate buffer, pH 7.4, and 3 mM MgCl2. The reaction mixtures were incubated at 37° C., and 50 μL aliquots were removed at 0, 5, 10, 20, and 30 minutes and added to shallow-well 96-well plates which contained 50 μL of ice-cold ACN with internal standard to stop the reactions. The plates were stored at 4° C. for 20 minutes after which 100 μl of water was added to the wells of the plate before centrifugation to pellet precipitated proteins. Supernatants were transferred to another 96-well plate and analyzed for amounts of parent remaining by LC-MS/MS using an Applied Bio-systems API 4000 mass spectrometer. 7-ethoxycoumarin (1 μM) was used as the positive control substrate.
The in vitro half-lives (t1/2s) for test compounds are calculated from the slopes of the linear regression of % parent remaining (ln) vs incubation time relationship using the following formula:
in vitro t1/2=0.693/k, where k=−[slope of linear regression of % parent remaining(ln) vs incubation time]
Data analysis is performed using Microsoft Excel Software.
The experiment was repeated four separate times.

[2] = test system: hepatitis C virus (HCV); details: treatment-naïve patients, boceprevir combined with peginterferon alpha-2b and ribavirin, cited from earlier work
[3] = patients with hepatitis C; adverse events infrequent (headache, fever, myalgia); cited from earlier work

Row | SMILES | % Difference [1] [%] | half-life at 0.25 μM ([1]; human liver microsomes) [min] | half-life at 0.25 μM ([1]; microsomes) [min] | sustained viral response (SVR) rates ([2]; after 12 weeks) | sustained viral response (SVR) rates ([2]; after 24 weeks) | tolerability [3]
1 | [2H]C([2H])([2H])C1(C([2H])([2H])[2H])[C@@H]2[C@@H](C(=O)NC(CC3CCC3)C(=O)C(N)=O)N(C(=O)[C@@H](NC(=O)NC(C([2H])([2H])[2H])(C([2H])([2H])[2H])C([2H])([2H])[2H])C(C([2H])([2H])[2H])(C([2H])([2H])[2H])C([2H])([2H])[2H])C[C@@H]21 (stereo partly drawn) [Compound 103, (1R,2S,5S)—N-(4-Amino-1-(cyclobutyl)-3,4-dioxobutan-2-yl)-3-((S)-2-(3-tert-butyl-d9-ureido)-3,3-di(methyl-d3)-4,4,4-d3-butanoyl)-6,6-di(methyl-d3)-3-azabicyclo[3.1.0]hexane-2-carboxamide] | 32.0 | 25 | – | – | – | –
2 | [2H]C1([2H])C([2H])([2H])C([2H])(CC(NC(=O)[C@@H]2[C@@H]3[C@H](CN2C(=O)[C@@H](NC(=O)NC(C)(C)C)C(C)(C)C)C3(C)C)C(=O)C(N)=O)C1([2H])[2H] (stereo partly drawn) [Compound 157, (1R,2S,5S)—N-(4-Amino-1-(cyclobutyl-d7)-3,4-dioxobutan-2-yl)-3-((S)-2-(3-tert-butylureido)-3,3-dimethylbutanoyl)-6,6-dimethyl-3-azabicyclo[3.1.0]hexane-2-carboxamide] | 39.9 | 26.6 | – | – | – | –
3 | [2H]C([2H])([2H])C1(C([2H])([2H])[2H])[C@@H]2[C@@H](C(=O)NC(C(=O)C(N)=O)C([2H])([2H])C3([2H])C([2H])([2H])C([2H])([2H])C3([2H])[2H])N(C(=O)[C@@H](NC(=O)NC(C([2H])([2H])[2H])(C([2H])([2H])[2H])C([2H])([2H])[2H])C(C([2H])([2H])[2H])(C([2H])([2H])[2H])C([2H])([2H])[2H])C[C@@H]21 (stereo partly drawn) [Compound 158, (1R,2S,5S)—N-(4-Amino-1-(cyclobutyl-d7)-1,1-d2-3,4-dioxobutan-2-yl)-3-((S)-2-(3-(tert-butyl-d9)ureido)-3,3-di(methyl-d3)-4,4,4-d3-butanoyl)-6,6-di(methyl-d3)-3-azabicyclo[3.1.0]hexane-2-carboxamide] | 96.3 | 37.2 | – | – | – | –
4 | [2H]C([2H])([2H])C(NC(=O)N[C@H](C(=O)N1C[C@H]2[C@@H]([C@H]1C(=O)NC(CC1CCC1)C(=O)C(N)=O)C2(C)C)C(C([2H])([2H])[2H])(C([2H])([2H])[2H])C([2H])([2H])[2H])(C([2H])([2H])[2H])C([2H])([2H])[2H] (stereo partly drawn) [Compound 109, (1R,2S,5S)—N-(4-Amino-1-cyclobutyl-3,4-dioxobutan-2-yl)-6,6-dimethyl-3-((S)-4,4,4-(methyl-d3)-2-(3-(1,1,1,3,3,3-di(methyl-d3)-2-(methyl-d3)propan-2-yl)ureido)-3,3-di(methyl-d3)butanoyl)-3-azabicyclo[3.1.0]hexane-2-carboxamide] | 21.8 | 23.2 | – | – | – | –
5 | [2H]C([2H])([2H])C1(C([2H])([2H])[2H])[C@@H]2[C@@H](C(=O)NC(CC3CCC3)C(=O)C(N)=O)N(C(=O)[C@@H](NC(=O)NC(C)(C)C)C(C)(C)C)C[C@@H]21 (stereo partly drawn) [Compound 134, (1R,2S,5S)—N-(4-Amino-1-cyclobutyl-3,4-dioxobutan-2-yl)-3-((S)-2-(3-tert-butylureido)-3,3-dimethylbutanoyl)-6,6-di(methyl-d3)-3-azabicyclo[3.1.0]hexane-2-carboxamide] | 7.9 | – | 19.1 | – | – | –
6 | [2H]C([2H])([2H])C1(C([2H])([2H])[2H])[C@@H]2[C@@H](C(=O)NC(C(=O)C(N)=O)C([2H])([2H])C3([2H])C([2H])([2H])C([2H])([2H])C3([2H])[2H])N(C(=O)[C@@H](NC(=O)NC(C)(C)C)C(C)(C)C)C[C@@H]21 (stereo partly drawn) [Compound 130, (1R,2S,5S)—N-(4-Amino-1-(cyclobutyl-d7)-1,1-d2-3,4-dioxobutan-2-yl)-3-((S)-2-(3-tert-butylureido)-3,3-dimethylbutanoyl)-6,6-di(methyl-d3)-3-azabicyclo[3.1.0]hexane-2-carboxamide] | 65.3 | 31.4 | – | – | – | –
7 | CC(C)(C)NC(=O)NC(C(=O)N1CC2C(C1C(=O)NC(CC1CCC1)C(=O)C(N)=O)C2(C)C)C(C)(C)C (stereo not drawn) [Boceprevir, N-(4-amino-1-cyclobutyl-3,4-dioxobutan-2-yl)-3-(2-(3-tert-butylureido)-3,3-dimethylbutanoyl)-6,6-dimethyl-3-azabicyclo[3.1.0]hexane-2-carboxamide] | – | 19 | – | 66-74% | 55-56% | well-tolerated
8 | [2H]C([2H])(C(NC(=O)[C@@H]1[C@@H]2[C@H](CN1C(=O)[C@@H](NC(=O)NC(C)(C)C)C(C)(C)C)C2(C)C)C(=O)C(N)=O)C1([2H])C([2H])([2H])C([2H])([2H])C1([2H])[2H] (stereo partly drawn) [Compound 154, (1R,2S,5S)—N-(4-Amino-1-(cyclobutyl-d7)-1,1-d2-3,4-dioxobutan-2-yl)-3-((S)-2-(3-tert-butylureido)-3,3-dimethylbutanoyl)-6,6-dimethyl-3-azabicyclo[3.1.0]hexane-2-carboxamide] | 51.4 | 28.7 | – | – | – | –
